Experiment: FK506 tissue concentrations (organ exposure) by mass spectrometry after drug delivery system implantation
Format: in vivo, Sprague-Dawley rats
Experimental: FK506 was detectable within the proximal injured sciatic nerve, DRGs (L4, L5), the entire spinal cord, and the muscles surrounding the nerve repair site, decreasing in concentration over time. FK506 content within the tissues was determined using mass spectrometry. (Mean±standard deviation, n=4).
Thirty adult female Sprague-Dawley rats were randomized into five groups (n=6). The experimental group included rats treated with fibrin gel loaded with FK506 by incorporating 10 microliters solubilized FK506 in acetonitrile (2 milligrams per milliliter), 200 micrograms solid FK506 particulates, or 5 milligrams of FK506 containing microspheres into the thrombin solution before it was mixed with fibrinogen to form a gel.
During the procedure, the sciatic nerve was exposed and the main branches were dissected. The tibial (TIB) nerve was transected 5 millimeters distal to its bifurcation from the common peroneal (CP) nerve and sural nerves with fine microsurgical scissors. The proximal TIB nerve stump was cross-sutured to the distal stump of a cut CP nerve. In the groups receiving the fibrin gel based drug delivery system, the nerve suture site was surrounded by two 40 microliters of the fibrin gels (containing applicable components for each group) formed by pipetting the fluid fibrin mixture onto a Parafilm sheet as semi-rectangular drops (˜5×5 millimeters) and placing the drops above and below the repair site. By gently opposing the drops, the delivery system was secured around the nerve. Three weeks after repair, the number of neurons that regenerated their axons were determined using retrograde labeling 7 millimeter distal to the repair site. Nerve samples at the location of retrograde labeling were collected for histomorphometric analysis. Using mass spectrometry, FK506 tissue concentrations were analyzed at the site of the injury, in sciatic nerve, dorsal root ganglia (DRGs), spinal cord, brain, heart, liver, kidney, and plasma at 7, 14, and 28 days post repair.

[1] = first week of drug release in vivo (7 days)

FK506 levels in sciatic nerve, gluteal muscles, spinal cord, kidney (at 14 days): barely detectable levels | FK506 within the DRGs (L4, L5) (at 14 days): accumulation | FK506 within the DRGs (L4, L5) (at 28 days): undetectable | FK506 levels in sciatic nerve, gluteal muscles, spinal cord, kidney (by 28 days): undetectable levels | FK506 in contralateral sciatic nerve, contralateral gluteal muscles, contralateral L4-L5 DRGs (entire period of the treatment): did not contain any FK506 | FK506 in plasma, brain, liver, or heart (entire study period): not detectable | FK506 in entire spinal cord [1]: highest level | FK506 in gluteal muscles surrounding the nerve [1]: detected
Structure (SMILES): C=CC[C@@H]1/C=C(\C)C[C@H](C)C[C@H](OC)[C@H]2O[C@@](O)(C(=O)C(=O)N3CCCC[C@H]3C(=O)O[C@H](/C(C)=C/[C@@H]3CC[C@@H](O)[C@H](OC)C3)[C@H](C)[C@@H](O)CC1=O)[C@H](C)C[C@@H]2OC [FK506]
FK506 in proximal injured sciatic nerve [1]: detected

Reference: patent US11376224B2, “System for delivery of FK506 for enhancing nerve regeneration” (THE HOSPITAL FOR SICK CHILDREN, priority 2016, dated 2022)
